Tests used:
[1] = tested on: Staphylococcus aureus; assay: Antibacterial activity against Staphylococcus aureus ATCC 29213 after 24 hrs by two-fold serial dilution method; assay type: functional; details: ATCC 29213, 24 h
[2] = tested on: Bacillus cereus; assay: Antibacterial activity against Bacillus cereus UW 85 after 24 hrs by two-fold serial dilution method; assay type: functional; details: UW 85, 24 h
[3] = tested on: Escherichia coli; assay: Antibacterial activity against Escherichia coli ATCC 12435 after 24 hrs by two-fold serial dilution method; assay type: functional; details: ATCC 12435, 24 h
[4] = tested on: Pseudomonas aeruginosa; assay: Antibacterial activity against Pseudomonas aeruginosa PAO1 after 24 hrs by two-fold serial dilution method; assay type: functional; details: PAO1, 24 h
[5] = tested on: Candida albicans; assay: Antifungal activity against Candida albicans after 48 hrs by two-fold serial dilution method; assay type: functional
[6] = tested on: Aspergillus fumigatus; assay: Antifungal activity against Aspergillus fumigatus 293 after 48 hrs by two-fold serial dilution method; assay type: functional; details: Aspergillus fumigatus, 293, 48 h
[7] = tested on: Aspergillus flavus; assay: Antifungal activity against Aspergillus flavus 3375 after 48 hrs by two-fold serial dilution method; assay type: functional; details: Aspergillus flavus, 3375, 48 h
[8] = tested on: Chromobacterium violaceum; assay: Inhibition of quorum sensing system in Chromobacterium violaceum ATCC 12472 assessed as diameter of violacein pigment inhibition at 5 mg/ml after 48 hrs
[9] = tested on: HepG2; assay: Antitumor activity against human HepG2 cells assessed as inhibition of cell proliferation after 48 hrs by MTT assay; assay type: functional, cell-based; details: HepG2, 48 h
[10] = tested on: MCF7; assay: Antitumor activity against human MCF7 cells assessed as inhibition of cell proliferation after 48 hrs by MTT assay; assay type: functional, cell-based; details: MCF7, 48 h
[11] = tested on: HeLa; assay: Antitumor activity against human HeLa cells assessed as inhibition of cell proliferation after 48 hrs by MTT assay; assay type: functional, cell-based
[12] = Displacement of methyl green from DNA (unknown origin) incubated in dark for 24 hrs
[13] = tested on: Ehrlich; assay: Antitumor activity against mouse EAC cells allografted in Swiss mouse assessed as mean survival time at 0.5 mg/mouse administered for 9 days (reference value: 18 day); assay type: functional
[14] = tested on: Ehrlich; assay: Antitumor activity against mouse EAC cells allografted in Swiss mouse assessed as increase in life span at 0.5 mg/mouse administered for 9 days relative to control; assay type: functional
[15] = tested on: Ehrlich; assay: Antitumor activity against mouse EAC cells allografted in Swiss mouse assessed as tumor volume at 0.5 mg/mouse administered for 9 days (reference value: 10.15 mL); assay type: functional
[16] = tested on: Ehrlich; assay: Antitumor activity against mouse EAC cells allografted in Swiss mouse assessed as viable tumor cell count at 0.5 mg/mouse administered for 9 days (reference value: 77.41 10^6/ml); assay type: functional
[17] = tested on: Mus musculus; assay: Toxicity in Swiss albino mouse implanted with mouse EAC cells assessed as hemoglobin level at 0.5 mg/mouse administered for 9 days (reference value: 7.05 g/dl); assay type: organism-based; details: in vivo, 216 h
[18] = tested on: Mus musculus; assay: Toxicity in Swiss albino mouse implanted with mouse EAC cells assessed as RBC count at 0.5 mg/mouse administered for 9 days (reference value: 3.59 10^6/mm3); assay type: organism-based; details: in vivo, 216 h
[19] = tested on: Mus musculus; assay: Toxicity in Swiss albino mouse implanted with mouse EAC cells assessed as WBC count at 0.5 mg/mouse administered for 9 days (reference value: 20.53 10^3/mm3); assay type: organism-based; details: in vivo, 216 h
[20] = tested on: WI-38; assay: Cytotoxicity against human W138 cells after 48 hrs by MTT assay; assay type: cell-based; details: WI-38, 48 h
[21] = tested on: WISH; assay: Cytotoxicity against human WISH cells after 48 hrs by MTT assay; assay type: cell-based

Structure (SMILES)	MIC [1]	MIC [2]	MIC [3]	MIC [4]	MIC [5]	MIC [6]	MIC [7]	diameter of the inhibition zone (DIZ) [8]	IC50 [9]	IC50 [10]	IC50 ([11]; read-out: IC50)	IC50 [12]	also measured
CCOC(=O)C1=C(N/N=C(\C#N)C(N)=O)Nc2[nH]nc(C)c2C1c1ccc(N(C)C)cc1 (configuration not stated)	4580 µM	2290 µM	1150 µM	1150 µM	4580 µM	4580 µM	4580 µM	< 2 mm	48.4 µM	50.1 µM	47.3 µM	–	–
COc1ccc(C2C(C#N)=C(NC(=O)/C=C/C(=O)O)Nc3[nH]nc(-c4ccccc4)c32)cc1 (configuration not stated)	–	–	–	–	–	–	–	–	–	–	–	39.4 to 82.8 µM	–
CCOC(=O)C1=C(N/C=N/c2nnc(S(N)(=O)=O)s2)Nc2[nH]nc(C)c2C1c1ccc(N(C)C)cc1 (configuration not stated)	118 µM	118 µM	940 µM	940 µM	940 µM	940 µM	940 µM	9 mm	38.1 µM	34.5 µM	26.3 µM	79.1 µM	–
CCOC(=O)C1=C(N/C=N/c2cccnc2Cl)Nc2[nH]nc(C)c2C1c1ccc(N(C)C)cc1 (configuration not stated)	65.1 µM	65.1 µM	65.1 µM	65.1 µM	130 µM	521 µM	521 µM	< 2 mm	4.89 µM	4.18 µM	4.63 µM	30.2 µM	MSD [13]: 59 days; Activity [14]: 227.8%; Activity [15]: 1.25 mL; Activity [16]: 21.8 ×10⁶ /ml; Activity [17]: 13.85 g/dL; Activity [18]: 5.78 ×10⁶ /mm3; Activity [19]: 8.14 ×10³ /mm3; IC50 [20]: 74.5 µM; IC50 [21]: 60.1 µM
CCOC(=O)C1=C(N/N=C(/C(=O)Br)c2ccc(Cl)cc2)Nc2[nH]nc(C)c2C1c1ccc(N(C)C)cc1 (configuration not stated)	427 µM	427 µM	1710 µM	1710 µM	3410 µM	3410 µM	3410 µM	< 2 mm	50.2 µM	46.3 µM	49.3 µM	80.7 µM	–
CCOC(=O)C1=C(N/C=N/c2ccc(C)cc2)Nc2[nH]nc(C)c2C1c1ccc(N(C)C)cc1 (configuration not stated)	136 µM	136 µM	2180 µM	2180 µM	> 200 µg/mL	2180 µM	2180 µM	< 2 mm	44.4 µM	50.5 µM	43.2 µM	76.4 µM	–
COc1ccc(C2C(C#N)=C(NC(=O)c3ccccc3)Nc3[nH]nc(-c4ccccc4)c32)cc1 (configuration not stated)	–	–	–	–	–	–	–	–	–	–	–	39.4 to 82.8 µM	–
CCOC(=O)C1=C(N/N=C(/Cl)C#N)Nc2[nH]nc(C)c2C1c1ccc(N(C)C)cc1 (configuration not stated)	> 200 µg/mL	2340 µM	2340 µM	1170 µM	4670 µM	4670 µM	2340 µM	< 2 mm	23.6 µM	23.2 µM	26.2 µM	–	–
COc1ccc(C2C(C#N)=C(/N=C/OC(C)=O)Nc3[nH]nc(-c4ccccc4)c32)cc1 (configuration not stated)	–	–	–	–	–	–	–	–	–	–	–	39.4 to 82.8 µM	–
CCOC(=O)C1=C(N/C=N/c2ccccn2)Nc2[nH]nc(C)c2C1c1ccc(N(C)C)cc1 (configuration not stated)	70.1 µM	70.1 µM	281 µM	281 µM	561 µM	281 µM	281 µM	< 2 mm	26.2 µM	37.3 µM	29.2 µM	28 µM	–
Oc1cc(O)c2c(c1)O[C@H](c1ccc(O)c(O)c1)[C@@H](O)C2	–	–	–	–	–	–	–	2 mm	–	–	–	–	–
COc1cccc2c1C(=O)c1c(O)c3c(c(O)c1C2=O)C[C@@](O)(C(=O)CO)C[C@@H]3O[C@H]1C[C@H](N)[C@H](O)[C@H](C)O1 [DOXORUBICIN]	–	–	–	–	–	–	–	–	4.3 µM	–	–	31.3 µM	IC50 [11]: 5.17 µM; MSD [13]: 62 days; Activity [14]: 244.4%; Activity [15]: 1 mL; Activity [16]: 16.36 ×10⁶ /ml; Activity [17]: 12.75 g/dL; Activity [18]: 5.32 ×10⁶ /mm3; Activity [19]: 8.96 ×10³ /mm3
CCOC(=O)C1=C(N/N=C(/Br)c2ccccc2)Nc2[nH]nc(C)c2C1c1ccc(N(C)C)cc1 (configuration not stated)	955 µM	955 µM	955 µM	478 µM	1910 µM	1910 µM	1910 µM	11 mm	72 µM	78.4 µM	75.7 µM	–	–
CCOC(=O)C1=C(N/N=C(/C(=O)Br)c2ccc(Br)cc2)Nc2[nH]nc(C)c2C1c1ccc(N(C)C)cc1 (configuration not stated)	99.1 µM	99.1 µM	397 µM	397 µM	397 µM	793 µM	1590 µM	< 2 mm	65 µM	61.3 µM	68.5 µM	43.7 µM	–
CCOC(=O)C1=C(N/N=C(/Cl)c2ccc([N+](=O)[O-])cc2)Nc2[nH]nc(C)c2C1c1ccc(N(C)C)cc1 (configuration not stated)	954 µM	1910 µM	1910 µM	954 µM	3820 µM	1910 µM	1910 µM	< 2 mm	55.5 µM	52.7 µM	46.2 µM	–	–
CCOC(=O)C1=C(N/N=C(/C#N)C(=O)OCC)Nc2[nH]nc(C)c2C1c1ccc(N(C)C)cc1 (configuration not stated)	2150 µM	1070 µM	1070 µM	1070 µM	537 µM	2150 µM	2150 µM	< 2 mm	46.4 µM	35.6 µM	39.2 µM	–	–
CCOC(=O)C1=C(N/C=N/c2ccc([N+](=O)[O-])cc2)Nc2[nH]nc(C)c2C1c1ccc(N(C)C)cc1 (configuration not stated)	255 µM	1050 µM	128 µM	128 µM	2040 µM	4090 µM	4090 µM	7 mm	50.9 µM	58.6 µM	57.8 µM	59.6 µM	–
OC(Cn1cncn1)(Cn1cncn1)c1ccc(F)cc1F [FLUCONAZOLE]	–	> 200 µg/mL	> 200 µg/mL	> 200 µg/mL	6530 µM	> 200 µg/mL	> 200 µg/mL	–	–	–	–	–	–
CCOC(=O)C1=C(N/N=C(\c2ccc([N+](=O)[O-])cc2)N2CCN(c3ccc(F)cc3)CC2)Nc2[nH]nc(C)c2C1c1ccc(N(C)C)cc1 (configuration not stated)	749 µM	374 µM	187 µM	187 µM	749 µM	3000 µM	3000 µM	< 2 mm	90.2 µM	> 100 µM	87 µM	51.8 µM	–
CC1(C)S[C@@H]2[C@H](NC(=O)[C@H](N)c3ccccc3)C(=O)N2[C@H]1C(=O)O [AMPICILLIN]	716 µM	1430 µM	28.6 µM	–	–	–	–	–	–	–	–	–	–
CCOC(=O)C1=C(N/N=C(/C(C)=O)C(=O)OCC)Nc2[nH]nc(C)c2C1c1ccc(N(C)C)cc1 (configuration not stated)	2070 µM	518 µM	518 µM	518 µM	4140 µM	2070 µM	2070 µM	< 2 mm	> 100 µM	> 100 µM	> 100 µM	68.2 µM	–
CCOC(=O)C(=NNC1=C(C(=O)OCC)C(c2ccc(N(C)C)cc2)c2c(C)n[nH]c2N1)C(=O)OCC (configuration not stated)	976 µM	976 µM	976 µM	976 µM	3900 µM	1950 µM	1950 µM	< 2 mm	80.8 µM	89.8 µM	83.8 µM	–	–
CCOC(=O)C1=C(N/N=C(\C(C)=O)C(=O)c2ccccc2)Nc2[nH]nc(C)c2C1c1ccc(N(C)C)cc1 (configuration not stated)	1940 µM	1940 µM	1940 µM	972 µM	1940 µM	3890 µM	3890 µM	< 2 mm	42.3 µM	47.3 µM	47.4 µM	–	–

Reference: ChEMBL document CHEMBL4270617, “Design, synthesis, antimicrobial, antiquorum-sensing and antitumor evaluation of new series of pyrazolopyridine derivatives” (Eur J Med Chem, 2018)
